43 compounds from patent US10280149B2, “Therapeutic compounds and uses thereof” (GENENTECH, INC., priority 2015, dated 2019) can be followed below.

The assay concerns the target Full length KDM2B (Homo sapiens (Human), UniProt Q8NHM5). Kind of assay: KDM2B TR-FRET assay for determining inhibitor IC50. Type of assay: biochemical. The note with it: TR-FRET (HTRF), biotin-H3K36me2 peptide substrate, 2-OG 0.3 μM or 6 μM. The source says: KDM2B TR-FRET Assay for Determining Inhibitor IC50
The KDM2B TR-FRET Assay described above represents an additional embodiment of the invention.
Background: Time-resolved FRET reads energy transfer from a long-lived donor to a nearby acceptor.

pIC50: −log10 of the molar value.

Chain of Full length KDM2B (Q8NHM5 whole entry): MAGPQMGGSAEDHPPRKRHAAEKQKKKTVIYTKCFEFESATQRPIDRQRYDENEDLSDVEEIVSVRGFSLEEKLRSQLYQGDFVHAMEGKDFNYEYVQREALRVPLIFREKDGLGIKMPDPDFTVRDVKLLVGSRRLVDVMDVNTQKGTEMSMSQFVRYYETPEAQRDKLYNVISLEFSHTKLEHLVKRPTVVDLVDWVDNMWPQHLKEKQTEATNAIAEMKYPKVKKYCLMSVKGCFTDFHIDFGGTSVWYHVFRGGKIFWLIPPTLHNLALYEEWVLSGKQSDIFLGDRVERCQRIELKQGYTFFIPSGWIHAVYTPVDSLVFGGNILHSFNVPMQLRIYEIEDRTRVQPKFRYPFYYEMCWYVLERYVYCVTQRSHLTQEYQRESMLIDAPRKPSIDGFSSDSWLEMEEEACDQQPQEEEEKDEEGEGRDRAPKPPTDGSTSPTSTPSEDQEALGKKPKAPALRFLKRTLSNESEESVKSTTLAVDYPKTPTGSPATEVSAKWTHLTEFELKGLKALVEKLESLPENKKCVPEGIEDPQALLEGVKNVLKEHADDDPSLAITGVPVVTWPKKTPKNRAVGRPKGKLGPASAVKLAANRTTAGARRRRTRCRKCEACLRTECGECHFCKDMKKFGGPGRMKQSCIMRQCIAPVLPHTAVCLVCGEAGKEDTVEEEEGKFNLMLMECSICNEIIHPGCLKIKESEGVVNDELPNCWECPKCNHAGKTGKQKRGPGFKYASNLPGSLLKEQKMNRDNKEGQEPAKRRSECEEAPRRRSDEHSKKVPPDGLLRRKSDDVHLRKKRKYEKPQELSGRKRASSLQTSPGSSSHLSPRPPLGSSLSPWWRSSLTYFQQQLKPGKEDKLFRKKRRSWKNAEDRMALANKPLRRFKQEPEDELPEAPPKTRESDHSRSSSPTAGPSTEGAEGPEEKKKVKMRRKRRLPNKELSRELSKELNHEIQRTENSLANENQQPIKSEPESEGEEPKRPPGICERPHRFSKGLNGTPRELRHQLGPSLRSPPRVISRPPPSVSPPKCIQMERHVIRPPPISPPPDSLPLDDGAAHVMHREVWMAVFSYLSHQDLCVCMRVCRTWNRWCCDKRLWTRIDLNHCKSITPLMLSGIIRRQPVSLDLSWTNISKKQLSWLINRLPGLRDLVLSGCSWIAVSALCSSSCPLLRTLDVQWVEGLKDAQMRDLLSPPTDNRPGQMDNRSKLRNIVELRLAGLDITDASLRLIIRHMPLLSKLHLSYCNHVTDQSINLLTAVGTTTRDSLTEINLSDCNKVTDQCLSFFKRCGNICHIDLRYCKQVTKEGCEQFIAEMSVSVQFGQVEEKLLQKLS

On to `COc1ccc2cc(C(=O)C3CCCN(CCF)C3)ccc2c1` (stereo not shown) [Example 79, [1-(2-fluoroethyl)-3-piperidyl]-(6-methoxy-2-naphthyl)methanone], for which the pIC50 is 5.74.

`CCCN1CCCC(C(=O)c2cc(C(C)O)c3ccccc3c2)C1` (stereo not shown) [Example 68, [4-(1-hydroxyethyl)-2-naphthyl]-(1-propyl-3-piperidyl)methanone]: the pIC50 is 7.12.

In turn, `COc1ccc2cc(C(=O)C3CN(C4CCC4)CCN3Cc3ccccc3)ccc2c1` (stereo not shown) [Example 191, (1-benzyl-4-cyclobutyl-piperazin-2-yl)-(6-methoxy-2-naphthyl)methanone] gave a pIC50 of 6.99.

Turning to `COc1ccc2cc(C(=O)[C@H]3C[C@@H](C)CN(CC4CC4)C3)ccc2c1` (single isomer, unassigned) [Example 139a, (1-(cyclopropylmethyl)-5-methylpiperidin-3-yl)(6-methoxynaphthalen-2-yl)methanone], the pIC50 is 6.48.

As to `CC(O)c1cc(C(=O)C2CCCN(C3CCCC3)C2)cc2ccccc12` (stereo not shown) [Example 63, (1-cyclopentyl-3-piperidyl)-[4-(1-hydroxyethyl)-2-naphthyl]methanone], the pIC50 is 6.82.

In turn, `CCC1CCN(C2CCC2)CC1C(=O)c1ccc2cc(OC)ccc2c1` (single isomer, unassigned) [Example 142b, (1-cyclobutyl-4-ethylpiperidin-3-yl)(6-methoxynaphthalen-2-yl)methanone] had a pIC50 of 6.46.

Regarding `O=C(c1cccc(-c2ccccc2)c1)C1CCCN(CC2CC2)C1` (stereo not shown) [Example 25, [1-(cyclopropylmethyl)-3-piperidyl]-(3-phenylphenyl)methanone], the pIC50 is 5.85.

The compound `CC(O)c1cc(C(=O)C2CCCN(CC3CC3)C2)cc2ccccc12` (stereo not shown) [Example 67, [1-(cyclopropylmethyl)-3-piperidyl]-[4-(1-hydroxyethyl)-2-naphthyl]methanone] showed a pIC50 of 6.83.

Consider `Cc1c(C#N)ccc2cc(C(=O)C3CCCN(C4CCC4)C3)ccc12` (stereo not shown) [Example 72, 6-(1-cyclobutylpiperidine-3-carbonyl)-1-methyl-2-naphthonitrile], for which the pIC50 is 7.06.

With `COc1ccc(C(=O)[C@H]2CCCN(C3CCC3)C2)c(OC)c1` [Example 11, [(3S)-1-cyclobutyl-3-piperidyl]-(2,4-dimethoxyphenyl)methanone], the pIC50 is 6.82.

On to `CCCN1CCCC(C(=O)c2cccc(OCc3ccccc3)c2)C1` (stereo not shown) [Example 95, (3-benzyloxyphenyl)-(1-propyl-3-piperidyl)methanone], for which the pIC50 is 6.08.

`N#Cc1cc(C(=O)C2CCCN(C3CCCC3)C2)cc2ccccc12` (stereo not shown) [Example 45, 3-(1-cyclopentylpiperidine-3-carbonyl)naphthalene-1-carbonitrile] had a pIC50 of 6.57.

In turn, `O=C(c1ccc2c(c1)CCCCC2)C1CCCN(C2CCC2)C1` (stereo not shown) [Example 132, (1-cyclobutylpiperidin-3-yl)(6,7,8,9-tetrahydro-5H-benzo[7]annulen-2-yl)methanoe] had a pIC50 of 7.26.

Consider `CCCN1CCCC(C(=O)c2ccc3c(C)c(OC)ccc3c2)C1` (stereo not shown) [Example 50, (6-methoxy-5-methyl-2-naphthyl)-(1-propyl-3-piperidyl)methanone], for which the pIC50 is 7.59.

For the compound `CN(C)C(=O)c1ccc2cc(C(=O)C3CCCN(C4CCC4)C3)ccc2c1` (stereo not shown) [Example 177, 6-(1-cyclobutylpiperidine-3-carbonyl)-N,N-dimethyl-2-naphthamide], the pIC50 was 6.95.

`CCC[C@@H]1CCN(C2CCC2)C[C@H]1C(=O)c1ccc2c(CC#N)c(OC)ccc2c1` (stereo in doubt) [Example 184c, 2-(6-(1-cyclobutyl-4-propylpiperidine-3-carbonyl)-2-methoxynaphthalen-1-yl)acetonitrile] showed a pIC50 of 8.50.

Consider `CC(=O)NCc1cc(C(=O)C2CCCN(CC3CC3)C2)cc2ccccc12` (stereo not shown) [Example 39, N-[[3-[1-(cyclopropylmethyl)piperidine-3-carbonyl]-1-naphthyl]methyl]acetamide], for which the pIC50 is 6.34.

`CCCN1CCCC(C(=O)c2cccc(N(C)C)c2)C1` (stereo not shown) [Example 90, [3-(dimethylamino)phenyl]-(1-propyl-3-piperidyl)methanone] had a pIC50 of 5.80.

Take `CCCN1CC[C@H](C)[C@H](C(=O)c2ccc3c(CC#N)c(OC)ccc3c2)C1` (stereo in doubt) [Example 181b, 2-(2-methoxy-6-(4-methyl-1-propylpiperidine-3-carbonyl)naphthalen-1-yl)acetonitrile]: the pIC50 was 7.91.

`O=C(c1ccc(Oc2ccccc2)cc1)C1CCCN(CC2CC2)C1` (stereo not shown) [Example 23, [1-(cyclopropylmethyl)-3-piperidyl]-(4-phenoxyphenyl)methanone] had a pIC50 of 5.68.

Turning to `O=C(c1ccc2c(Oc3ccccc3)cccc2c1)C1CCCN(CC2CC2)C1` (stereo not shown) [Example 112, (1-(cyclopropylmethyl)piperidin-3-yl)(5-phenoxynaphthalen-2-yl)methanone], the pIC50 is 6.76.

The compound `CS(=O)(=O)N1CCc2cc(C(=O)C3CCCN(C4CCC4)C3)ccc2C1` (stereo not shown) [Example 149, (1-cyclobutylpiperidin-3-yl)(2-(methylsulfonyl)-1,2,3,4-tetrahydroisoquinolin-6-yl)methanone] gave a pIC50 of 6.79.

With `CC[C@@H]1CCN(C2CCC2)C[C@H]1C(=O)c1ccc2cc(OC)ccc2c1` (single isomer, unassigned) [Example 142a, (1-cyclobutyl-4-ethylpiperidin-3-yl)(6-methoxynaphthalen-2-yl)methanone], the pIC50 was 7.94.

Consider `N#Cc1cc(C(=O)C2CCCN(C3CCC3)C2)cc2ccccc12` (stereo not shown) [Example 44, 3-(1-cyclobutylpiperidine-3-carbonyl)naphthalene-1-carbonitrile], for which the pIC50 is 7.00.

`COc1ccc(C(=O)[C@@H]2CCCN(CC3CC3)C2)cc1` (stereo in doubt) [Example 110b, (1-(cyclopropylmethyl)piperidin-3-yl)(4-methoxyphenyl)methanone] had a pIC50 of 5.28.

In the case of `CCCN1CCCC(C(=O)c2ccc(Cl)c(Cl)c2)C1` (stereo not shown) [Example 101, (3,4-dichlorophenyl)-(1-propyl-3-piperidyl)methanone], the pIC50 is 6.55.

`CCC1CCN(C2CC2)CC1C(=O)c1ccc2cc(OC)ccc2c1` (single isomer, unassigned) [Example 147a, (1-cyclopropyl-4-ethylpiperidin-3-yl)(6-methoxynaphthalen-2-yl)methanone] had a pIC50 of 5.70.

`O=C(c1ccc(-c2ccccc2)nc1)C1CCCN(CC2CC2)C1` (stereo not shown) [Example 36, [1-(cyclopropylmethyl)-3-piperidyl]-(6-phenyl-3-pyridyl)methanone] had a pIC50 of 6.27.

For the compound `CCCN1CCCC(C(=O)c2ccc(OC)cc2)C1` (stereo not shown) [Example 97, (4-methoxyphenyl)-(1-propyl-3-piperidyl)methanone], the pIC50 was 6.03.

For the compound `O=C(c1ccc2cc(CO)ccc2c1)C1CCCN(C2CCC2)C1` (stereo not shown) [Example 153, (1-cyclobutylpiperidin-3-yl)(6-(hydroxymethyl)naphthalen-2-yl)methanone], the pIC50 is 6.39.

Turning to `Cc1cccc2ccc(C(=O)C3CCCN(CC4CC4)C3)cc12` (stereo not shown) [Example 59, [1-(cyclopropylmethyl)-3-piperidyl]-(8-methyl-2-naphthyl)methanone], the pIC50 is 6.77.

For `O=C(c1cnc2ccccc2c1)C1CCCN(CC2CC2)C1` (stereo not shown) [Example 125, (1-(cyclopropylmethyl)piperidin-3-yl)(quinolin-3-yl)methanone], the pIC50 was 6.31.

Compound `C[C@H]1CCN(C2CCC2)C[C@@H]1C(=O)c1ccc2cc(C#N)ccc2c1` (stereo in doubt) [Example 161a, 6-(1-cyclobutyl-4-methylpiperidine-3-carbonyl)-2-naphthonitrile] had a pIC50 of 5.52.

With `CS(=O)(=O)c1ccc2cc(C(=O)C3CCCN(C4CCCC4)C3)ccc2c1` (stereo not shown) [Example 171, (1-cyclopentylpiperidin-3-yl)(6-(methylsulfonyl)naphthalen-2-yl)methanone], the pIC50 was 6.99.

In turn, `COc1ccc2cc(C(=O)C3CCCN(CCC#N)C3)ccc2c1` (stereo not shown) [Example 84, 3-[3-(6-methoxynaphthalene-2-carbonyl)-1-piperidyl]propanenitrile] had a pIC50 of 6.15.

For the compound `Cc1cccc2ccc(C(=O)C3CCCN(C4CCC4)C3)cc12` (stereo not shown) [Example 62, (1-cyclobutyl-3-piperidyl)-(8-methyl-2-naphthyl)methanone], the pIC50 was 6.99.

The compound `C[C@@H]1CCN(C2CCC2)C[C@H]1C(=O)c1ccc2cc(C#N)ccc2c1` (stereo in doubt) [Example 161b, 6-(1-cyclobutyl-4-methylpiperidine-3-carbonyl)-2-naphthonitrile] gave a pIC50 of 7.91.

`COc1ccc2cc(C(=O)C3CCCN(CC4CC4)C3)ccc2c1CC#N` (stereo not shown) [Example 53, 2-[6-[1-(cyclopropylmethyl)piperidine-3-carbonyl]-2-methoxy-1-naphthyl]acetonitrile] had a pIC50 of 7.47.

Compound `Cn1c(=O)n(C)c2cc(C(=O)C3CCCN(CC4CC4)C3)ccc21` (stereo not shown) [Example 130, 5-(1-(cyclopropylmethyl)piperidine-3-carbonyl)-1,3-dimethyl-1H-benzo[d]imidazol-2-one] gave a pIC50 of 6.35.

The compound `O=C(c1ccc(-c2ccccc2)cc1)[C@H]1CCCN(CC2CC2)C1` [Example 33, [(3S)-1-(cyclopropylmethyl)-3-piperidyl]-(4-phenylphenyl)methanone] had a pIC50 of 7.02.

As for `Cc1c(C#N)ccc2cc(C(=O)C3CCCN(C4CCCC4)C3)ccc12` (stereo not shown) [Example 73, 6-(1-cyclopentylpiperidine-3-carbonyl)-1-methyl-2-naphthonitrile], the pIC50 was 6.49.

`COc1ccc(C(=O)[C@@H]2CCCN(C3CCC3)C2)c(OC)c1` [Example 12, [(3R)-1-cyclobutyl-3-piperidyl]-(2,4-dimethoxyphenyl)methanone] gave a pIC50 of 5.05.

The compound `COc1ccccc1C(=O)[C@@H]1CCCN(CC2CC2)C1` (stereo in doubt) [Example 111, (1-(cyclopropylmethyl)piperidin-3-yl)(2-methoxyphenyl)methanone] gave a pIC50 of 5.51.

One may read the pIC50 as the IC50 on a negative log10 scale, so that one unit is a factor of ten.
